Experimental data taken from US11013716B2, “Method for providing an increased expression of telomerase, brain-derived neurotrophic factor, stromal cell-derived factor-1, CXC chemokine receptor 4, and/or immune regulatory factor of stem cell” (HAWKING BIOLOGICAL TECHNOLOGY CO., LTD, priority 2013, dated 2021).

Legend:
[1] = Phase I metabolism assay of n-butylidenephthalide, rat hepatic microsomes, LC-MS/MS; type: in vitro ADME; conditions: Rat hepatic microsomes 0.5 mg/mL, BP 2 mM, NADPH, 37° C., 60 minutes
Description: (§1) It has been known that the medicine metabolic pathway within an organism's liver can be primarily divided into phase I and phase II metabolism. Phase I metabolism occurs mainly by the redox reaction or hydrolysis reaction of medicine, while phase II metabolism occurs mainly by […]. This example simulated the phase I and II metabolism of butylidenephthalide that occur within an organism's liver by respectively mixing butylidenephthalide with hepatic microsomes or cryopreserved hepatocytes in vitro. The products in the reaction solution were analyzed by liquid chromatograph-tandem mass spectrometer (LC-MS/MS) to identify the metabolites and the metabolic profile. The experimental steps were as follows:
(§2) n-Butylidenephthalide (comprising Z-BP 95%+E-BP 5%; purchased from ECHO Chemical) (2 mM) was mixed respectively with K3PO4 buffer solution (100 mM, pH7.4) containing human, rats or dogs hepatic micrsomes (0.5 mg/mL). The mixture was maintained at 37° C. for 10 minutes, and then pre-warmed cofactors (NADPH (2 mM) and MgCl2 (3 mM)) were added thereto and the mixture was incubated at 37° C. for 60 minutes. Thereafter, 3-fold volume of acetonitrile containing 0.1% formic acid was added to the mixture to terminate the reaction. The mixture was centrifuged at 13000 rpm for 5 minutes. The supernatant was then collected and analyzed by LC-MS/MS to identify the metabolites.
(§3) The samples obtained from (1) and (2) were separately dissolved in acetonitrile/0.1% formic acid, centrifuged at 45000 g, 4° C. for 10 minutes. Then, an aliquot (20 μl) of each sample was injected into an autosampler vial (Agilent Technologies, USA) of a LC-MS/MS system to perform LC-MS/MS analysis. The LC-MS/MS system comprises an ABSCIEX 5500 Q TRAP™ system with 1200SL HPLC system (Agilent Technologies, USA), a HPLC column (Symmetry® C18, 3.5 μM, 4.6×75 mm), and a autosampler (Agilent Technologies, USA). A two-solvent system (solvent A: 0.1% formic acid; solvent B: methanol containing 0.1% formic acid) was used to perform HPLC at a flow rate of 0.8 mL/min. The HPLC gradient system was set as follows: 0 to 2 minutes held at 10% solvent B; 2 to 7 minutes with a gradient from 10% to 95% solvent B; 7 to 12 minutes held at 95% solvent B; 12 to 14 minutes with a gradient from 95% to 10% solvent B; 14 to 20 minutes held at 10% solvent B; and the retention time of HPLC analysis is 20 minutes. The mass spectrometry analysis was performed in positive ion electrospray ionization (+ESI) mode at 5.5 kV, 550° C., and N2 (nitrogen) was used as an auxiliary gas. The most intense peaks in the LC-MS/MS spectrum and the mass-shifted peaks in the LC-MS/MS spectrum of each sample as compared to n-butylidenephthalide spectrum were analyzed by LightSight™ Software to determine the metabolites in the samples and identifying the biotransformation pathway and metabolic profile of n-butylidenephthalide in an organism. The results are shown in Table 1, Table 2, FIG. 1A, FIG. 1B and FIG. 1C.

[2] = Phase I metabolism assay of n-butylidenephthalide, human hepatic microsomes, LC-MS/MS; type: in vitro ADME; conditions: Human hepatic microsomes 0.5 mg/mL, BP 2 mM, NADPH, 37° C., 60 minutes
Description: as §1, §2, §3

[3] = Phase I metabolism assay of n-butylidenephthalide, dog hepatic microsomes, LC-MS/MS; type: in vitro ADME; conditions: Dog hepatic microsomes 0.5 mg/mL, BP 2 mM, NADPH, 37° C., 60 minutes
Description: as §1, §2, §3

dog hepatocytes = test: Phase II metabolism assay of n-butylidenephthalide, dog hepatocytes, LC-MS/MS; type: in vitro ADME; conditions: Dog cryopreserved hepatocytes, BP 50 μM, 37° C., 6 hours
Description: as §1
(§4) William's E medium containing 5×10^5 thawed human, rat or dog hepatocytes were respectively added into a 12-well culture dish, and the cells were cultured for 6 hours. Then, 0.5 mL of n-butylidenephthalide (comprising Z-BP 95%+E-BP 5%; purchased from ECHO Chemical) (50 μM) was added into the culture dish. After the cells were incubated at 37° C., 95% relative humidity and 5% CO2 for 6 hours, 2 mL of acetonitrile (100%) was added to terminate the reaction. […] The supernatant was then collected, dried, and analyzed by LC-MS/MS to identify the metabolites of n-butylidenephthalide. […]

telomerase [4] = conditions: previous research; cited from earlier work
[5] = tested on: SOD1-G93A transgenic mice; test: BBB scale of the hind limbs of SOD1-G93A transgenic mice; type: in vivo; conditions: 500 mg/kg once daily oral; FIG. 3
Method: (§5) This example used the above SOD1-G93A transgenic mice as the object of study to perform in vivo analysis.
After the mice were treated for 30 days, the hind limbs of the mice were examined by BBB scale (Basso, Beattie, and Bresnahan (BBB) Locomotor Rating Scale). […] BBB scale is used to record the efficiency of the treatments.

telomerase [6] = test: Telomerase expression level of ADSCs (Telomerase PCR ELISA kit); type: cell-based, human; conditions: 100 μM or 250 μM, 24 hours; FIG. 4
Method: (§6) Human ADSCs were isolated from human adipose tissue by the following steps. Human adipose tissue from clinical research was washed with equal volumes of phosphate-buffered saline (PBS) and minced with fine scissors. Then, the tissue was digested with 0.075% collagenase type I (Sigma-Aldrich Co., St. Louis, Mo., USA) at 37° C. for 30 to 60 minutes, and a Dulbecco's modified Eagle's medium (DMEM)/F-12 (Invitrogen, Carlsbad, Calif., USA) containing 10% fetal bovine serum (FBS, Invitrogen) was added to terminate the digestion. The digested adipose tissue cells were filtered through a 100 μm nylon mesh to remove the cellular debris. The cell suspension was centrifuged for 10 minutes to obtain a pellet and cultured at 37° C., 5% CO2 in a culture media (DMEM/F-12 containing 10% FBS, 100 U/mL penicillin, and 100 μg/mL streptomycin). Following the incubation, the plates were washed with PBS to remove the residual non-adherent red blood cells. […]
The ADSCs were cultured in a 10 cm dish, and treated with valproic acid (VPA) (1 μM or 10 μM) or BP (comprising Z-BP 95%+E-BP 5%; purchased from ECHO Chemical) (100 μM or 250 μM) at different doses for 24 hours. Then, the telomerase expression level of the ADSCs was determined by a Telomerase PCR ELISA kit (Cat. No. 11854666910, Roche). […]

[7] = tested on: brain-derived neurotrophic factor (BDNF); test: Gene expression level in ADSCs by RT-PCR: BDNF; type: cell-based, human; conditions: ADSCs, 10, 20 or 50 μg/ml (especially 20 μg/ml), 12 hours; FIG. 5
Method: as §6
(§7) ADSCs (2×10^5 cells/well) were cultured in a 6 well dish in a 37° C. incubator overnight. […] Thereafter, the gene expression levels of brain-derived neurotrophic factor (BDNF), stromal cell-derived factor-1 (SDF1), C-X-C chemokine receptor type 4 (CXCR4), interleukin 6 (IL-6), and interleukin 8 (IL-8) of the ADSCs were determined by RT-PCR. […]

[8] = tested on: SOD1-G93A transgenic mice; test: Survival of SOD1-G93A transgenic mice (amyotrophic lateral sclerosis model); type: in vivo; conditions: oral
Description: It has been known that about 20% of amyotrophic lateral sclerosis patients were associated with mutations in the gene that encodes Cu/Zn superoxide dismutase enzyme (SOD1), and G93A was the major mutation site.
as §5

[9] = tested on: stromal cell-derived factor-1 (SDF1); test: Gene expression level in ADSCs by RT-PCR: SDF1; type: cell-based, human; conditions: ADSCs, 10, 20 or 50 μg/ml (especially 20 μg/ml), 12 hours; FIG. 5
Method: as §6, §7

[10] = tested on: C-X-C chemokine receptor type 4 (CXCR4); test: Gene expression level in ADSCs by RT-PCR: CXCR4; type: cell-based, human; conditions: ADSCs, 10, 20 or 50 μg/ml (especially 20 μg/ml), 12 hours; FIG. 5
Method: as §6, §7

interleukin 8 (IL-8) = test: Gene expression level in ADSCs by RT-PCR: IL-8; type: cell-based, human; conditions: ADSCs, 10, 20 or 50 μg/ml, 12 hours; FIG. 5
Method: as §6, §7

interleukin 6 (IL-6) = test: Gene expression level in ADSCs by RT-PCR: IL-6; type: cell-based, human; conditions: ADSCs, 10, 20 or 50 μg/ml, 12 hours; FIG. 5
Method: as §6, §7

human hepatocytes = test: Phase II metabolism assay of n-butylidenephthalide, human hepatocytes, LC-MS/MS; type: in vitro ADME; conditions: Human cryopreserved hepatocytes, BP 50 μM, 37° C., 6 hours
Description: as §1, §4

rat hepatocytes = test: Phase II metabolism assay of n-butylidenephthalide, rat hepatocytes, LC-MS/MS; type: in vitro ADME; conditions: Rat cryopreserved hepatocytes, BP 50 μM, 37° C., 6 hours
Description: as §1, §4

[11] = 500 mg/kg-body weight once daily

Row | Biotransformation pathway (Phase I metabolites of n-butylidenephthalide) [1] | Biotransformation pathway (Phase I metabolites of n-butylidenephthalide) [2] | Biotransformation pathway (Phase I metabolites of n-butylidenephthalide) [3] | SMILES | also measured
1 | Hydrogenation (forming | Hydrogenation (forming | Hydrogenation (forming | CCCCC1(O)OC(=O)c2ccccc21 (stereo not drawn) [Compound (7)] | 
2 | Oxidation | Oxidation | Oxidation | CC(O)C/C=C1\OC(=O)c2ccccc21 (stereo not drawn) [Compound (4)] | 
3 | Tri-Demethylation | Tri-Demethylation | Tri-Demethylation | C=C1OC(=O)c2ccccc21 [Compound (8)] | 
4 | Dehydrogenation | Dehydrogenation | Dehydrogenation | C/C=C/C=C1\OC(=O)c2ccccc21 [Compound (2)] | 

The remaining lines, values behind:

Row | SMILES | Biotransformation pathway (Phase I metabolites of n-butylidenephthalide) [1] | Biotransformation pathway (Phase I metabolites of n-butylidenephthalide) [2] | Biotransformation pathway (Phase I metabolites of n-butylidenephthalide) [3] | also measured
5 | C/C=C/C=C1\OC(=O)c2c(O[C@@H]3OC(CO)[C@@H](O)[C@H](O)C3O)cccc21 (stereo partly drawn) [Compound (14)] |  |  |  | Biotransformation pathway (Phase II metabolites of n-butylidenephthalide) (dog hepatocytes): Dehydrogenation +
6 | CCCC(CCC)C(=O)O [VPA, valproic acid] |  |  |  | Telomerase activity of ADSCs (telomerase [4]): could increase the telomerase activity
7 | CCCCC(=O)c1ccccc1C(=O)O [Compound (5)] | Hydrogenation (forming | Hydrogenation (forming | Hydrogenation (forming | 
8 | CCCC=C1OC(=O)c2ccccc21 [BP, n-butylidenephthalide] |  |  |  | Time after which the BBB scale of the hind limbs decreased rapidly [5]: > 135 days; Telomerase activity (expression level of telomerase) of ADSCs (telomerase [6]): higher telomerase activity; Gene expression level of BDNF [7]: increased; Longevity prolonged as compared to the control group ([8]; 250 mg/kg-body weight twice daily): about 91.3±16 days; Longevity prolonged as compared to the control group [8, 11]: about 22.7±2.8 days; Gene expression level of SDF1 [9]: increased; Gene expression level of CXCR4 [10]: increased; Gene expression level of IL-8 (interleukin 8 (IL-8)): increased; Gene expression level of IL-6 (interleukin 6 (IL-6)): increased
9 | CCCC=C1OC(=O)C2=C1CCC=C2 [ligustilide, 3-butylidene-4,5-dihydrophthalide] |  |  |  | Time after which the BBB scale of the hind limbs decreased rapidly [5]: > 170 days; Longevity prolonged as compared to the control group [8, 11]: about 74.8±1.2 days
10 | C/C=C/C=C1\OC(=O)c2c1cccc2S(=O)(=O)O [Compound (12)] |  |  |  | Biotransformation pathway (Phase II metabolites of n-butylidenephthalide) (human hepatocytes): Dehydrogenation +; Biotransformation pathway (Phase II metabolites of n-butylidenephthalide) (rat hepatocytes): Dehydrogenation +
